Source: a compilation of properties of binary mixtures (doi:10.1007/s10953-021-01127-x)

Test: xn = mol fraction of the nth substance listed
Details: 100 kPa

CCCC[n+]1ccn(C)c1C.F[B-](F)(F)F + O=C1CCCN1
speed of sound (293.15 K, x1 = 0.0698): 1659.6 m/s
speed of sound (293.15 K, x1 = 0.1948): 1670.6 m/s
speed of sound (293.15 K, x1 = 0.2495): 1672.1 m/s
speed of sound (293.15 K, x1 = 0.2945): 1671.9 m/s
speed of sound (293.15 K, x1 = 0.3428): 1670.8 m/s
speed of sound (293.15 K, x1 = 0.3964): 1666.8 m/s
speed of sound (293.15 K, x1 = 0.4419): 1661.9 m/s
speed of sound (293.15 K, x1 = 0.5004): 1653.8 m/s
speed of sound (293.15 K, x1 = 0.5563): 1645.8 m/s
speed of sound (293.15 K, x1 = 0.5949): 1640.2 m/s
speed of sound (293.15 K, x1 = 0.6984): 1626.6 m/s
speed of sound (293.15 K, x1 = 0.7521): 1622.1 m/s
speed of sound (293.15 K, x1 = 0.8549): 1623.2 m/s
speed of sound (293.15 K, x1 = 0.9564): 1642.5 m/s
speed of sound (298.15 K, x1 = 0.0698): 1644.9 m/s
speed of sound (298.15 K, x1 = 0.1052): 1649.6 m/s
speed of sound (298.15 K, x1 = 0.1948): 1659.8 m/s
speed of sound (298.15 K, x1 = 0.2495): 1662.8 m/s
speed of sound (298.15 K, x1 = 0.2945): 1663.3 m/s
speed of sound (298.15 K, x1 = 0.3428): 1662 m/s
speed of sound (298.15 K, x1 = 0.3964): 1658.3 m/s
speed of sound (298.15 K, x1 = 0.5004): 1645.7 m/s
speed of sound (298.15 K, x1 = 0.5563): 1637.1 m/s
speed of sound (298.15 K, x1 = 0.5949): 1630.9 m/s
speed of sound (298.15 K, x1 = 0.6419): 1623.6 m/s
speed of sound (298.15 K, x1 = 0.6984): 1616.1 m/s
speed of sound (298.15 K, x1 = 0.8031): 1608.8 m/s
speed of sound (298.15 K, x1 = 0.8549): 1610.3 m/s
speed of sound (298.15 K, x1 = 0.9021): 1615.8 m/s
speed of sound (298.15 K, x1 = 0.9564): 1628.7 m/s
speed of sound (303.15 K, x1 = 0.0698): 1629.3 m/s
speed of sound (303.15 K, x1 = 0.1052): 1634.8 m/s
speed of sound (303.15 K, x1 = 0.1469): 1640.6 m/s
speed of sound (303.15 K, x1 = 0.2945): 1652 m/s
speed of sound (303.15 K, x1 = 0.3428): 1651.2 m/s
speed of sound (303.15 K, x1 = 0.4419): 1643.3 m/s
speed of sound (303.15 K, x1 = 0.5004): 1635.6 m/s
speed of sound (303.15 K, x1 = 0.5563): 1626.5 m/s
speed of sound (303.15 K, x1 = 0.5949): 1620.4 m/s
speed of sound (303.15 K, x1 = 0.6419): 1613.1 m/s
speed of sound (303.15 K, x1 = 0.6984): 1605.4 m/s
speed of sound (303.15 K, x1 = 0.7521): 1599.8 m/s
speed of sound (303.15 K, x1 = 0.8031): 1596.7 m/s
speed of sound (303.15 K, x1 = 0.8549): 1597.8 m/s
speed of sound (303.15 K, x1 = 0.9021): 1603.4 m/s
speed of sound (308.15 K, x1 = 0.0698): 1615.7 m/s
speed of sound (308.15 K, x1 = 0.1052): 1621.9 m/s
speed of sound (308.15 K, x1 = 0.1469): 1628.7 m/s
speed of sound (308.15 K, x1 = 0.1948): 1634.9 m/s
speed of sound (308.15 K, x1 = 0.2495): 1638.3 m/s
speed of sound (308.15 K, x1 = 0.2945): 1640.1 m/s
speed of sound (308.15 K, x1 = 0.3428): 1639.9 m/s
speed of sound (308.15 K, x1 = 0.3964): 1637.2 m/s
speed of sound (308.15 K, x1 = 0.4419): 1633 m/s
speed of sound (308.15 K, x1 = 0.5004): 1625.8 m/s
speed of sound (308.15 K, x1 = 0.5563): 1617.3 m/s
speed of sound (308.15 K, x1 = 0.5949): 1611.1 m/s
speed of sound (308.15 K, x1 = 0.6419): 1603.7 m/s
speed of sound (308.15 K, x1 = 0.6984): 1595.6 m/s
speed of sound (308.15 K, x1 = 0.7521): 1589.4 m/s
speed of sound (308.15 K, x1 = 0.8031): 1586.2 m/s
speed of sound (308.15 K, x1 = 0.8549): 1586.8 m/s
speed of sound (308.15 K, x1 = 0.9021): 1591.6 m/s
speed of sound (308.15 K, x1 = 0.9564): 1603.7 m/s
